Reference: PubChem BioAssay AID256 (DTP/NCI, 2004)
Values joined by “and” are separate entries in the source; they are usually repeats but may differ in a detail not shown here. Equal values may be shown once. Toxic doses and inconclusive results are not listed.

System: CD2F1 mice, L1210 leukemia ip, survival T/C
Assay: NCI In Vivo Anticancer Drug Screen. Data for tumor model L1210 Leukemia (intraperitoneal) in CD2F1 (CDF1) mice
Conditions: higher = longer survival
Method in brief: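 Ratio T/C, where T is the treated-group value and C the vehicle-dosed control value, from mice implanted with a transplantable tumor.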

[1] = endpoint: mean survival time, dose: 100.0 mg/kg/injection, schedule: Q01DX009 (ip), vehicle: saline with Tween-80
[2] = endpoint: mean survival time, dose: 200.0 mg/kg/injection, schedule: Q01DX009 (ip), vehicle: saline with Tween-80
[3] = endpoint: mean survival time, dose: 100.0 mg/kg/injection, schedule: Q01DX001 (ip), vehicle: saline
[4] = endpoint: mean survival time, dose: 100.0 mg/kg/injection, schedule: Q04DX003 (ip), vehicle: saline
[5] = endpoint: mean survival time, dose: 200.0 mg/kg/injection, schedule: Q01DX001 (ip), vehicle: saline
[6] = endpoint: mean survival time, dose: 200.0 mg/kg/injection, schedule: Q04DX003 (ip), vehicle: saline
[7] = endpoint: mean survival time, dose: 400.0 mg/kg/injection, schedule: Q04DX003 (ip), vehicle: saline
[8] = endpoint: mean survival time, dose: 100.0 mg/kg/injection, schedule: Q04DX003 (ip), vehicle: saline with Tween-80

## O=C(NC1CCCCC1)OCc1c(COC(=O)NC2CCCCC2)c(-c2ccc(Cl)c(Cl)c2)n2c1CCC2
endpoint: mean survival time, dose: 12.5 mg/kg/injection, schedule: Q01DX009 (ip), vehicle: saline with Tween-80
  T/C: 119 % of control and 112 % of control
endpoint: mean survival time, dose: 25.0 mg/kg/injection, schedule: Q01DX009 (ip), vehicle: saline with Tween-80
  T/C: 112 % of control
[1]
  T/C: 122 % of control
[2]
  T/C: 151 % of control and 157 % of control
endpoint: mean survival time, dose: 400.0 mg/kg/injection, schedule: Q01DX009 (ip), vehicle: saline with Tween-80
  T/C: 121 % of control and 97 % of control

## CSc1ccc(C)cn1 (tested in a mixture with another compound)
[1]
  T/C: 100 % of control
[2]
  T/C: 97 % of control

## c1ccc(-c2nn[nH]n2)nc1
[3]
  T/C: 101 % of control
[4]
  T/C: 90 % of control and 104 % of control
[5]
  T/C: 101 % of control
[6]
  T/C: 102 % of control and 104 % of control
[7]
  T/C: 94 % of control and 108 % of control

## CC(=O)OC1CCC(C(C)(C)C)CC1 (stereo not drawn)
[4]
  T/C: 102 % of control
[6]
  T/C: 95 % of control
[7]
  T/C: 96 % of control

## Cc1cc(C)c2c(C#N)cn(-c3ccccc3)c2n1
[3]
  T/C: 104 % of control
[5]
  T/C: 100 % of control
endpoint: mean survival time, dose: 400.0 mg/kg/injection, schedule: Q01DX001 (ip), vehicle: saline
  T/C: 100 % of control

## CC([NH-])C([NH-])O.[I][Pt+2][I] (stereo not drawn)
endpoint: mean survival time, dose: 6.25 mg/kg/injection, schedule: Q04DX003 (ip), vehicle: saline with Tween-80
  T/C: 97 % of control
endpoint: mean survival time, dose: 12.5 mg/kg/injection, schedule: Q04DX003 (ip), vehicle: saline with Tween-80
  T/C: 115 % of control
endpoint: mean survival time, dose: 25.0 mg/kg/injection, schedule: Q04DX003 (ip), vehicle: saline with Tween-80
  T/C: 121 % of control

## O=C(C(=O)c1ccc(Cl)cc1)c1ccc(Cl)cc1
endpoint: mean survival time, dose: 6.25 mg/kg/injection, schedule: Q04DX003 (ip), vehicle: other
  T/C: 94 % of control
endpoint: mean survival time, dose: 12.5 mg/kg/injection, schedule: Q04DX003 (ip), vehicle: other
  T/C: 90 % of control
endpoint: mean survival time, dose: 25.0 mg/kg/injection, schedule: Q04DX003 (ip), vehicle: other
  T/C: 90 % of control

## CCOC(=O)CCN(CCC(=O)OCC)Cc1ccccc1
endpoint: mean survival time, dose: 100.0 mg/kg/injection, schedule: Q04DX002 (ip), vehicle: saline with Tween-80
  T/C: 112 % of control
endpoint: mean survival time, dose: 200.0 mg/kg/injection, schedule: Q04DX002 (ip), vehicle: saline with Tween-80
  T/C: 100 % of control
endpoint: mean survival time, dose: 400.0 mg/kg/injection, schedule: Q04DX002 (ip), vehicle: saline with Tween-80
  T/C: 103 % of control

## COc1cc2c3c(c1)-c1c(ccc(OC)c1OC)CC3N(CCN(CCCl)CCCl)CC2 (stereo not drawn)
endpoint: mean survival time, dose: 6.25 mg/kg/injection, schedule: Q04DX003 (ip), vehicle: saline
  T/C: 101 % of control
endpoint: mean survival time, dose: 12.5 mg/kg/injection, schedule: Q04DX003 (ip), vehicle: saline
  T/C: 98 % of control
endpoint: mean survival time, dose: 25.0 mg/kg/injection, schedule: Q04DX003 (ip), vehicle: saline
  T/C: 101 % of control
endpoint: mean survival time, dose: 50.0 mg/kg/injection, schedule: Q04DX003 (ip), vehicle: saline
  T/C: 101 % of control
[4]
  T/C: 87 % of control

## O=C1OC(c2ccccc2)(c2ccccc2)c2cccc3cccc1c23
[8]
  T/C: 93 % of control
endpoint: mean survival time, dose: 400.0 mg/kg/injection, schedule: Q04DX003 (ip), vehicle: saline with Tween-80
  T/C: 86 % of control

## [Cl][Pt+2][Cl].[NH-]c1ccc(F)cc1F.[NH-]c1ccc(F)cc1F
endpoint: mean survival time, dose: 12.5 mg/kg/injection, schedule: Q04DX003 (ip), vehicle: distilled water + Tween-80
  T/C: 114 % of control and 104 % of control and 110 % of control
endpoint: mean survival time, dose: 25.0 mg/kg/injection, schedule: Q04DX003 (ip), vehicle: distilled water + Tween-80
  T/C: 115 % of control and 117 % of control and 96 % of control
endpoint: mean survival time, dose: 50.0 mg/kg/injection, schedule: Q04DX003 (ip), vehicle: distilled water + Tween-80
  T/C: 116 % of control and 105 % of control
endpoint: mean survival time, dose: 100.0 mg/kg/injection, schedule: Q04DX003 (ip), vehicle: distilled water + Tween-80
  T/C: 122 % of control and 88 % of control and 94 % of control

## CCC(=O)O/N=C(\c1ccccc1)c1cccnc1
endpoint: mean survival time, dose: 100.0 mg/kg/injection, schedule: Q01DX001 (ip), vehicle: other
  T/C: 113 % of control
endpoint: mean survival time, dose: 200.0 mg/kg/injection, schedule: Q01DX001 (ip), vehicle: other
  T/C: 98 % of control
endpoint: mean survival time, dose: 400.0 mg/kg/injection, schedule: Q01DX001 (ip), vehicle: other
  T/C: 101 % of control

## C[N+](C)(C)c1ccc(Cc2ccc([N+](C)(C)C)cc2)cc1
endpoint: mean survival time, dose: 6.3 micrograms/kg/injection, schedule: Q04DX002 (ip), vehicle: saline with Tween-80
  T/C: 101 % of control
endpoint: mean survival time, dose: 12.5 micrograms/kg/injection, schedule: Q04DX002 (ip), vehicle: saline with Tween-80
  T/C: 108 % of control
endpoint: mean survival time, dose: 25.0 micrograms/kg/injection, schedule: Q04DX002 (ip), vehicle: saline with Tween-80
  T/C: 101 % of control

## O=C(O)CCCC(=O)C1CCCCC1
endpoint: mean survival time, dose: 50.0 mg/kg/injection, schedule: Q01DX009 (ip), vehicle: saline with Tween-80
  T/C: 103 % of control
[1]
  T/C: 103 % of control
[8]
  T/C: 95 % of control
[2]
  T/C: 98 % of control
endpoint: mean survival time, dose: 200.0 mg/kg/injection, schedule: Q04DX003 (ip), vehicle: saline with Tween-80
  T/C: 90 % of control

## Cc1cc(C)c(CC=O)c(C)c1
endpoint: median survival time, dose: 25.0 mg/kg/injection, schedule: Q04DX002 (ip), vehicle: saline with Tween-80
  T/C: 100 % of control
endpoint: median survival time, dose: 50.0 mg/kg/injection, schedule: Q04DX002 (ip), vehicle: saline with Tween-80
  T/C: 100 % of control
endpoint: median survival time, dose: 100.0 mg/kg/injection, schedule: Q04DX002 (ip), vehicle: saline with Tween-80
  T/C: 100 % of control
endpoint: median survival time, dose: 200.0 mg/kg/injection, schedule: Q04DX002 (ip), vehicle: saline with Tween-80
  T/C: 100 % of control
